Values of other authors in patent publication US20160206641A1, “RAPIDLY-[…] FILM FORMULATION OF WATER SOLUBLE […] GLYCOSIDE FOR THE TREATMENT OF […] DISEASE” (LUMINUS BIOSCIENCES INC., priority 2013, published 2016).
Converted amounts (≈) assume the structure as drawn.

C[C@@H]1O[C@@H](O[C@H]2C[C@@H](O)[C@]3(CO)[C@H]4[C@H](O)C[C@]5(C)[C@@H](C6=CC(=O)OC6)CC[C@]5(O)[C@@H]4CC[C@]3(O)C2)[C@H](O)[C@H](O)[C@H]1O [ouabain, 1β,3β,5β,11α,14,19-Hexahydroxycard-20(22)-enolide 3-(6-deoxy-α-L-mannopyranoside)]
solubility in cold water (cold water): 10000 µg/mL (≈ 17.1 mM) | solubility in hot water (hot water): more than 50 mg/ml
